Earlier results on 1 molecule are cited in US20040072738A1, “Analogues of thiocoraline and be-22179” (priority 2000, published 2004).

Bridge positions count the residues as written; N and C are the ends. Square brackets hold non-standard residues; d marks the D form. Peptide text beside a SMILES is read from it. I, II: the chains in the order shown. * marks the point of attachment. Quinaldoyl(3-OH) = O=C(c1nc2ccccc2cc1O)*; NMeC = CN[C@@H](CS)C(=O)O

Data set [1] concerns the target T1, DNA topoisomerase I (Homo sapiens, UniProt P11387).
T1 sequence (P11387 1-765): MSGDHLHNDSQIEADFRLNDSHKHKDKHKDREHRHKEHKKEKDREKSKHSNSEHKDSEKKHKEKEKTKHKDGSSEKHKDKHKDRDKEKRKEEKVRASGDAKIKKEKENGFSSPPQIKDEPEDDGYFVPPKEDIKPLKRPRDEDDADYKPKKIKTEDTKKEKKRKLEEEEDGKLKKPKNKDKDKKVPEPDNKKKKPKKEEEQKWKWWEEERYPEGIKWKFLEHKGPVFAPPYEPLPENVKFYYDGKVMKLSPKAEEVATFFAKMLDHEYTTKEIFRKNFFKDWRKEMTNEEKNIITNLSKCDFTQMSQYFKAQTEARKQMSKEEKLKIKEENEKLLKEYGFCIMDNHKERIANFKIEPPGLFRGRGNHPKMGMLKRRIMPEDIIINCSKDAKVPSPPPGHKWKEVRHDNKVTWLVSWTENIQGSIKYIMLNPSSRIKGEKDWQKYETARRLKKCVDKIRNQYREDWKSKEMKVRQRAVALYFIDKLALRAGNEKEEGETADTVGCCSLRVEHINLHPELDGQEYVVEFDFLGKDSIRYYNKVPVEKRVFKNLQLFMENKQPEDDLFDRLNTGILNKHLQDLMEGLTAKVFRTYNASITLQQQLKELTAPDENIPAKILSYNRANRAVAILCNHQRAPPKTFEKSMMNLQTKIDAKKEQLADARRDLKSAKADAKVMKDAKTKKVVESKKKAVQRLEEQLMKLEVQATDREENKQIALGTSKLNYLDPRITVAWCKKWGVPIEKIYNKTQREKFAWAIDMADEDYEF
The following applies: cited from earlier work.

Data set [2] concerns DNA topoisomerase II. Conditions: cited from earlier work.

`CSC[C@H]1C(=O)SC[C@@H](NC(=O)c2nc3ccccc3cc2O)C(=O)NCC(=O)N(C)[C@H]2CSSC[C@@H](C(=O)N1C)N(C)C(=O)CNC(=O)[C@H](NC(=O)c1nc3ccccc3cc1O)CSC(=O)[C@H](CSC)N(C)C2=O` [Thiocoraline] (I: {Quinaldoyl(3-OH)}-[dC]G[NMeC][NMeC](Me) / II: {Quinaldoyl(3-OH)}-[dC]G[NMeC][NMeC](Me); thioester I:1-II:C, I:C-II:1; disulfide I:3-II:3): in data set [1], the “inhibition of DNA topoisomerase I” value is “does not inhibit”. Also, the “inhibition of DNA topoisomerase II” value in data set [2] is “does not inhibit”.
